Test results taken from patent US20150328269A1, “PREPARATION FOR RADIO PROTECTION” (LYCORED LTD., priority 2012, published 2015).

How the values were obtained:
[1] = Radiation-induced oxidation of liposomes (MDA/TBA read-out); format: biochemical, hen; conditions: for Radioprotection in %: 500 Gy Co60 γ-quanta, 84.8 Gy/min, liposomes 2 mg/ml phospholipids in saline solution
Source text: (§1) The biologic membranes play the most important role in cell vital activity. The high sensibility of lipids and phospholipids, which are the main structural components of biomembranes, as to oxidative stress, including those caused by irradiation, is the consequence of the high content of unsaturated fatty acids. The liposomes being obtained from phospholipids of hen's egg yolk were used as a model of the biomembranes. The phospholipids are able to form liposome emulsions in water; this allows studying in model experiments the radioprotective and antioxidant properties of various water-soluble and water-insoluble compounds, including water-insoluble phytoene as well. To obtain the liposomes, 20 mg of the phospholipids, being dissolved in chloroform, were entered into a conical vial and dried in vacuum. Then 2 ml of a saline solution containing 0.15 M NaCl, 0.005 M KCl, 0.0012 M KH2PO4, 0.0012 M Na2HPO4 at pH 7.4 was added to the dried sample. The mixture has been shaken, input into an ultrasonic bath for 30 seconds, and then the total volume was increased up to 10 ml, stirred, treated with ultrasound, and as the result the liposome suspension with the phospholipid concentration of 2 mg/ml was received. […] Optical density of the colored TBA products was calculated by the optical density data, considering the molar extinction coefficient at 532 nm equals to 156,000 mol^-1·cm^-1. […] Taking as 100% the level of the MDA increment at the induced liposome oxidation above spontaneous phospholipids oxidation in the absence of phytoene, and taking into account the fact that the presence of phytoene in the liposomes can modify the level of the spontaneous oxidation, the protection efficacy (PE)OK in the […] of the induced liposome oxidation was calculated by the formula: (PE)OK=(CPOK-CPK)·100/(COK-CK), in which CPK , CPOK are the MDA concentrations in the liposomes with phytoene before and after the liposome induced oxidation respectively; CK, COK (are the MDA concentrations in the control liposomes (without phytoene) before and after the liposome induced oxidation respectively.

[2] = Fe++-induced oxidation of liposomes (MDA/TBA read-out); format: biochemical, hen; conditions: for Protection against Fe++-induced oxidation in %: 50 μM Fe++, 30 minutes, room temperature
Source text: as §1

Question: With `CC(C)=CCC/C(C)=C/CC/C(C)=C/CC/C(C)=C/C=C/C=C(\C)CC/C=C(\C)CC/C=C(\C)CCC=C(C)C` (stereo in doubt) [phytoene] as the compound, how does the Radioprotection in % ([1]; phytoene:phospholipid 1:10) read?
Answer: 62.0 ± 10.4%

Question: What about the Radioprotection in % ([1]; phytoene:phospholipid 1:100) of the same compound?
Answer: 37.2 ± 5.2%

Question: And the “Protection of liposomes against oxidative stress induced by the radiation (in words)” value ([1]; summary statement)?
Answer: protects the liposomes against the oxidative stress

Question: What about the “Protection against Fe++-induced oxidation in %” value ([2]; phytoene:phospholipid 1:10) of the same compound?
Answer: 50.9 ± 6.6%

Question: And the “Protection against Fe++-induced oxidation in %” value ([2]; phytoene:phospholipid 1:100)?
Answer: 18.7 ± 11.5%

Question: What about the “Protection of liposomes against oxidative stress induced with ferrous iron ions (in words)” value ([2]; summary statement) of the same compound?
Answer: protects the liposomes against the oxidative stress
